Data taken from ChEMBL document CHEMBL1141332, “Cytotoxic metabolites from an Indonesian sponge Lendenfeldia sp” (J Nat Prod, 2007).

What was measured:
Assay type in all cases: functional
HL-60 = experiment: Cytotoxicity against human HL60 cells; settings: Homo sapiens, HL-60
MOLT-4 = experiment: Cytotoxicity against human MOLT4 cells
RPMI-8226 = experiment: Cytotoxicity against human RPMI8226 cells
SR = experiment: Cytotoxicity against human SR cells
A549 = experiment: Cytotoxicity against human A549 cells
EKVX = experiment: Cytotoxicity against human EKVX cells
HOP-62 = experiment: Cytotoxicity against human HOP62 cells
HOP-92 = experiment: Cytotoxicity against human HOP92 cells
NCI-H226 = experiment: Cytotoxicity against human NCI-H226 cells
NCI-H23 = experiment: Cytotoxicity against human NCI-H23 cells
NCI-H322M = experiment: Cytotoxicity against human NCI-H322M cells
NCI-H460 = experiment: Cytotoxicity against human NCI-H460 cells
COLO 205 = experiment: Cytotoxicity against human COLO205 cells
HCC 2998 = experiment: Cytotoxicity against human HCC2998 cells
HCT-116 = experiment: Cytotoxicity against human HCT116 cells
HCT-15 = experiment: Cytotoxicity against human HCT15 cells
KM12 = experiment: Cytotoxicity against human KM12 cells
SW-620 = experiment: Cytotoxicity against human SW620 cells
SF-268 = experiment: Cytotoxicity against human SF268 cells
SF-295 = experiment: Cytotoxicity against human SF295 cells
SF-539 = experiment: Cytotoxicity against human SF539 cells
SNB-19 = experiment: Cytotoxicity against human SNB19 cells; settings: read-out: Log LC50 (the source's name) (converted)
SNB-75 = experiment: Cytotoxicity against human SNB75 cells
M14 = experiment: Cytotoxicity against human M14 cells
SK-MEL-2 = experiment: Cytotoxicity against human SK-MEL-2 cells
SK-MEL-28 = experiment: Cytotoxicity against human SK-MEL-28 cells
SK-MEL-5 = experiment: Cytotoxicity against human SK-MEL-5 cells
UACC-62 = experiment: Cytotoxicity against human UACC62 cells
OVCAR-3 = experiment: Cytotoxicity against human OVCAR-3 cells
OVCAR-4 = experiment: Cytotoxicity against human OVCAR4 cells
OVCAR-5 = experiment: Cytotoxicity against human OVCAR5 cells
OVCAR-8 = experiment: Cytotoxicity against human OVCAR8 cells
A498 = experiment: Cytotoxicity against human A498 cells
ACHN = experiment: Cytotoxicity against human ACHN cells
RXF 393 = experiment: Cytotoxicity against human RXF393 cells
SN12C = experiment: Cytotoxicity against human SN12C cells
TK-10 = experiment: Cytotoxicity against human TK10 cells
UO-31 = experiment: Cytotoxicity against human UO31 cells
PC-3 = experiment: Cytotoxicity against human PC3 cells
DU-145 = experiment: Cytotoxicity against human DU145 cells
MCF7 = experiment: Cytotoxicity against human MCF7 cells
NCI/ADR-RES = experiment: Cytotoxicity against human NCI/ADR-RES cells
MDA-MB-231 = experiment: Cytotoxicity against human MDA-MB-231 cells
[1] = Cytotoxicity against human HS578T cells; settings: Hs-578T
BT-549 = experiment: Cytotoxicity against human BT549 cells
T47D = experiment: Cytotoxicity against human T47D cells
[2] = read-out: Log LC50 (the source's name) (converted)

Question: Which results are given for `CC(=O)O[C@@H]1C[C@H]2[C@]3(C)CC[C@H]4C(C)(C)CCC[C@]4(C)[C@H]3C[C@H](O)[C@]2(C)[C@@H](C=O)[C@@H]1C(C)=O` [SCALARHERBACIN A]?
Answer: GI50 (HL-60): 1320 nM; CC50 (HL-60; [2]): 8510 nM; TGI (HL-60; read-out: Log TGI (converted)): 3390 nM; GI50 (MOLT-4): 324 nM; CC50 (MOLT-4; [2]): 4170 nM; TGI (MOLT-4; read-out: Log TGI (converted)): 1120 nM; GI50 (RPMI-8226): 407 nM; CC50 (RPMI-8226; [2]): 13200 nM; TGI (RPMI-8226; read-out: Log TGI (converted)): 2090 nM; GI50 (SR): 282 nM; TGI (SR; read-out: Log TGI (converted)): 1150 nM; GI50 (A549): 1230 nM; CC50 (A549; [2]): 6610 nM; TGI (A549; read-out: Log TGI (converted)): 2820 nM; GI50 (EKVX): 1320 nM; CC50 (EKVX; [2]): 5750 nM; TGI (EKVX; read-out: Log TGI (converted)): 2750 nM; GI50 (HOP-62): 1070 nM; CC50 (HOP-62; [2]): 4790 nM; TGI (HOP-62; read-out: Log TGI (converted)): 2240 nM; GI50 (HOP-92): 1320 nM; CC50 (HOP-92; [2]): 5500 nM; TGI (HOP-92; read-out: Log TGI (converted)): 2690 nM; GI50 (NCI-H226): 1580 nM; CC50 (NCI-H226; [2]): 6760 nM; TGI (NCI-H226; read-out: Log TGI (converted)): 3240 nM; GI50 (NCI-H23): 1660 nM; CC50 (NCI-H23; [2]): 6170 nM; TGI (NCI-H23; read-out: Log TGI (converted)): 3240 nM; GI50 (NCI-H322M): 2140 nM; CC50 (NCI-H322M; [2]): 8710 nM; TGI (NCI-H322M; read-out: Log TGI (converted)): 4270 nM; GI50 (NCI-H460): 1450 nM; CC50 (NCI-H460; [2]): 6760 nM; TGI (NCI-H460; read-out: Log TGI (converted)): 3160 nM; GI50 (COLO 205): 537 nM; CC50 (COLO 205; [2]): 5250 nM; TGI (COLO 205; read-out: Log TGI (converted)): 1860 nM; GI50 (HCC 2998): 1510 nM; CC50 (HCC 2998; [2]): 5620 nM; TGI (HCC 2998; read-out: Log TGI (converted)): 2950 nM; GI50 (HCT-116): 407 nM; CC50 (HCT-116; [2]): 3720 nM; TGI (HCT-116; read-out: Log TGI (converted)): 1380 nM; GI50 (HCT-15): 759 nM; CC50 (HCT-15; [2]): 4790 nM; TGI (HCT-15; read-out: Log TGI (converted)): 2040 nM; GI50 (KM12): 1480 nM; CC50 (KM12; [2]): 8510 nM; TGI (KM12; read-out: Log TGI (converted)): 3550 nM; GI50 (SW-620): 214 nM; CC50 (SW-620; [2]): 1070 nM; TGI (SW-620; read-out: Log TGI (converted)): 468 nM; GI50 (SF-268): 1450 nM; CC50 (SF-268; [2]): 7410 nM; TGI (SF-268; read-out: Log TGI (converted)): 3240 nM; GI50 (SF-295): 1450 nM; CC50 (SF-295; [2]): 6170 nM; TGI (SF-295; read-out: Log TGI (converted)): 3020 nM; GI50 (SF-539): 417 nM; TGI (SF-539; read-out: Log TGI (converted)): 1580 nM; CC50 (SNB-19): 1660 nM; GI50 (SNB-75): 1580 nM; CC50 (SNB-75; [2]): 5500 nM; TGI (SNB-75; read-out: Log TGI (converted)): 2950 nM; GI50 (M14): 1450 nM; CC50 (M14; [2]): 5370 nM; TGI (M14; read-out: Log TGI (converted)): 2750 nM; GI50 (SK-MEL-2): 2240 nM; CC50 (SK-MEL-2; [2]): 16600 nM; TGI (SK-MEL-2; read-out: Log TGI (converted)): 4790 nM; GI50 (SK-MEL-28): 389 nM; TGI (SK-MEL-28; read-out: Log TGI (converted)): 1290 nM; GI50 (SK-MEL-5): 1290 nM; CC50 (SK-MEL-5; [2]): 5250 nM; TGI (SK-MEL-5; read-out: Log TGI (converted)): 2630 nM; GI50 (UACC-62): 1580 nM; CC50 (UACC-62; [2]): 5500 nM; TGI (UACC-62; read-out: Log TGI (converted)): 2950 nM; GI50 (OVCAR-3): 1120 nM; CC50 (OVCAR-3; [2]): 5500 nM; TGI (OVCAR-3; read-out: Log TGI (converted)): 2510 nM; GI50 (OVCAR-4): 912 nM; CC50 (OVCAR-4; [2]): 6610 nM; TGI (OVCAR-4; read-out: Log TGI (converted)): 2510 nM; GI50 (OVCAR-5): 1320 nM; CC50 (OVCAR-5; [2]): 5130 nM; TGI (OVCAR-5; read-out: Log TGI (converted)): 2630 nM; GI50 (OVCAR-8): 676 nM; CC50 (OVCAR-8; [2]): 57500 nM; TGI (OVCAR-8; read-out: Log TGI (converted)): 3890 nM; GI50 (A498): 1820 nM; LC50 (A498): 6760 nM; TGI (A498; read-out: Log TGI (converted)): 3470 nM; GI50 (ACHN): 457 nM; LC50 (ACHN): 3980 nM; TGI (ACHN; read-out: Log TGI (converted)): 1550 nM; GI50 (RXF 393): 1150 nM; LC50 (RXF 393): 5370 nM; TGI (RXF 393; read-out: Log TGI (converted)): 2510 nM; GI50 (SN12C): 1350 nM; TGI (SN12C; read-out: Log TGI (converted)): 2750 nM; GI50 (TK-10): 1380 nM; LC50 (TK-10): 6610 nM; TGI (TK-10; read-out: Log TGI (converted)): 3020 nM; GI50 (UO-31): 1230 nM; TGI (UO-31; read-out: Log TGI (converted)): 2570 nM; GI50 (PC-3): 741 nM; LC50 (PC-3): 5250 nM; TGI (PC-3; read-out: Log TGI (converted)): 2140 nM; GI50 (DU-145): 1230 nM; LC50 (DU-145): 5130 nM; TGI (DU-145; read-out: Log TGI (converted)): 2510 nM; GI50 (MCF7): 1820 nM; LC50 (MCF7): 70800 nM; TGI (MCF7; read-out: Log TGI (converted)): 6170 nM; GI50 (NCI/ADR-RES): 1660 nM; LC50 (NCI/ADR-RES): 7080 nM; TGI (NCI/ADR-RES; read-out: Log TGI (converted)): 3470 nM; GI50 (MDA-MB-231): 1480 nM; TGI (MDA-MB-231; read-out: Log TGI (converted)): 2880 nM; GI50 [1]: 1020 nM; LC50 [1]: 8910 nM; TGI ([1]; read-out: Log TGI (converted)): 3020 nM; GI50 (BT-549): 562 nM; LC50 (BT-549): 4370 nM; TGI (BT-549; read-out: Log TGI (converted)): 1780 nM; GI50 (T47D): 832 nM; LC50 (T47D): 25100 nM; TGI (T47D; read-out: Log TGI (converted)): 3550 nM
